18 compounds from patent publication US8785457B2 (Cellzome Limited, priority 2009, dated 2014) can be followed below.

Read-outs that look alike come from different tables or passages of the source. A value given as a limit tells only on which side of the number the result lay.

Test [1] addresses T1, DNA-dependent protein kinase (DNA-PK) (Homo sapiens, UniProt P78527).
T1 construct: endogenous in cells; host or cells: Jurkat, clone E6-1 (ATCC TIB-152) cell lysate
Briefly: kinobeads assay, DNA-PK. The format is binding. Put shortly:
(§1)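 IC50 values came from dose-response curves after test compound (1:3 series) competed with an immobilized phenylmorpholin-chromen affinity matrix for kinases in Jurkat lysate at 5 mg/mL protein. Eluted captured DNA-PK and PI3Kδ were measured by specific-antibody dot blot and infrared imaging. Buffer was Tris pH 7.4, NP40, MgCl2, NaCl, vanadate, DTT, NaF.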

For the next test, the target named is T2, PI3K delta (PI3 Kd) (Homo sapiens, UniProt O00329).
T2 construct: endogenous in cells; host or cells: Jurkat, clone E6-1 (ATCC TIB-152) cell lysate
Description: kinobeads assay, PI3K delta. It is filed as binding. Put shortly: as §1

Where [2] appears, read: Further Kinobeads Data, read-out: DNAPK.
[3] abbreviates: Further Kinobeads Data, read-out: PI3Kd.
[4] abbreviates: kinobeads assay, Table 4, read-out: Inhibition values (IC50) DNA-PK.
Where [5] appears, read: kinobeads assay, Table 6, read-out: Inhibition values (IC50) DNAPK.
[6] abbreviates: kinobeads assay, Table 4, read-out: Inhibition values (IC50) PI3Kd.
Setting [7] is: kinobeads assay, Table 6, read-out: Inhibition values (IC50) PI3Kd.

T1 sequence (P78527 whole entry): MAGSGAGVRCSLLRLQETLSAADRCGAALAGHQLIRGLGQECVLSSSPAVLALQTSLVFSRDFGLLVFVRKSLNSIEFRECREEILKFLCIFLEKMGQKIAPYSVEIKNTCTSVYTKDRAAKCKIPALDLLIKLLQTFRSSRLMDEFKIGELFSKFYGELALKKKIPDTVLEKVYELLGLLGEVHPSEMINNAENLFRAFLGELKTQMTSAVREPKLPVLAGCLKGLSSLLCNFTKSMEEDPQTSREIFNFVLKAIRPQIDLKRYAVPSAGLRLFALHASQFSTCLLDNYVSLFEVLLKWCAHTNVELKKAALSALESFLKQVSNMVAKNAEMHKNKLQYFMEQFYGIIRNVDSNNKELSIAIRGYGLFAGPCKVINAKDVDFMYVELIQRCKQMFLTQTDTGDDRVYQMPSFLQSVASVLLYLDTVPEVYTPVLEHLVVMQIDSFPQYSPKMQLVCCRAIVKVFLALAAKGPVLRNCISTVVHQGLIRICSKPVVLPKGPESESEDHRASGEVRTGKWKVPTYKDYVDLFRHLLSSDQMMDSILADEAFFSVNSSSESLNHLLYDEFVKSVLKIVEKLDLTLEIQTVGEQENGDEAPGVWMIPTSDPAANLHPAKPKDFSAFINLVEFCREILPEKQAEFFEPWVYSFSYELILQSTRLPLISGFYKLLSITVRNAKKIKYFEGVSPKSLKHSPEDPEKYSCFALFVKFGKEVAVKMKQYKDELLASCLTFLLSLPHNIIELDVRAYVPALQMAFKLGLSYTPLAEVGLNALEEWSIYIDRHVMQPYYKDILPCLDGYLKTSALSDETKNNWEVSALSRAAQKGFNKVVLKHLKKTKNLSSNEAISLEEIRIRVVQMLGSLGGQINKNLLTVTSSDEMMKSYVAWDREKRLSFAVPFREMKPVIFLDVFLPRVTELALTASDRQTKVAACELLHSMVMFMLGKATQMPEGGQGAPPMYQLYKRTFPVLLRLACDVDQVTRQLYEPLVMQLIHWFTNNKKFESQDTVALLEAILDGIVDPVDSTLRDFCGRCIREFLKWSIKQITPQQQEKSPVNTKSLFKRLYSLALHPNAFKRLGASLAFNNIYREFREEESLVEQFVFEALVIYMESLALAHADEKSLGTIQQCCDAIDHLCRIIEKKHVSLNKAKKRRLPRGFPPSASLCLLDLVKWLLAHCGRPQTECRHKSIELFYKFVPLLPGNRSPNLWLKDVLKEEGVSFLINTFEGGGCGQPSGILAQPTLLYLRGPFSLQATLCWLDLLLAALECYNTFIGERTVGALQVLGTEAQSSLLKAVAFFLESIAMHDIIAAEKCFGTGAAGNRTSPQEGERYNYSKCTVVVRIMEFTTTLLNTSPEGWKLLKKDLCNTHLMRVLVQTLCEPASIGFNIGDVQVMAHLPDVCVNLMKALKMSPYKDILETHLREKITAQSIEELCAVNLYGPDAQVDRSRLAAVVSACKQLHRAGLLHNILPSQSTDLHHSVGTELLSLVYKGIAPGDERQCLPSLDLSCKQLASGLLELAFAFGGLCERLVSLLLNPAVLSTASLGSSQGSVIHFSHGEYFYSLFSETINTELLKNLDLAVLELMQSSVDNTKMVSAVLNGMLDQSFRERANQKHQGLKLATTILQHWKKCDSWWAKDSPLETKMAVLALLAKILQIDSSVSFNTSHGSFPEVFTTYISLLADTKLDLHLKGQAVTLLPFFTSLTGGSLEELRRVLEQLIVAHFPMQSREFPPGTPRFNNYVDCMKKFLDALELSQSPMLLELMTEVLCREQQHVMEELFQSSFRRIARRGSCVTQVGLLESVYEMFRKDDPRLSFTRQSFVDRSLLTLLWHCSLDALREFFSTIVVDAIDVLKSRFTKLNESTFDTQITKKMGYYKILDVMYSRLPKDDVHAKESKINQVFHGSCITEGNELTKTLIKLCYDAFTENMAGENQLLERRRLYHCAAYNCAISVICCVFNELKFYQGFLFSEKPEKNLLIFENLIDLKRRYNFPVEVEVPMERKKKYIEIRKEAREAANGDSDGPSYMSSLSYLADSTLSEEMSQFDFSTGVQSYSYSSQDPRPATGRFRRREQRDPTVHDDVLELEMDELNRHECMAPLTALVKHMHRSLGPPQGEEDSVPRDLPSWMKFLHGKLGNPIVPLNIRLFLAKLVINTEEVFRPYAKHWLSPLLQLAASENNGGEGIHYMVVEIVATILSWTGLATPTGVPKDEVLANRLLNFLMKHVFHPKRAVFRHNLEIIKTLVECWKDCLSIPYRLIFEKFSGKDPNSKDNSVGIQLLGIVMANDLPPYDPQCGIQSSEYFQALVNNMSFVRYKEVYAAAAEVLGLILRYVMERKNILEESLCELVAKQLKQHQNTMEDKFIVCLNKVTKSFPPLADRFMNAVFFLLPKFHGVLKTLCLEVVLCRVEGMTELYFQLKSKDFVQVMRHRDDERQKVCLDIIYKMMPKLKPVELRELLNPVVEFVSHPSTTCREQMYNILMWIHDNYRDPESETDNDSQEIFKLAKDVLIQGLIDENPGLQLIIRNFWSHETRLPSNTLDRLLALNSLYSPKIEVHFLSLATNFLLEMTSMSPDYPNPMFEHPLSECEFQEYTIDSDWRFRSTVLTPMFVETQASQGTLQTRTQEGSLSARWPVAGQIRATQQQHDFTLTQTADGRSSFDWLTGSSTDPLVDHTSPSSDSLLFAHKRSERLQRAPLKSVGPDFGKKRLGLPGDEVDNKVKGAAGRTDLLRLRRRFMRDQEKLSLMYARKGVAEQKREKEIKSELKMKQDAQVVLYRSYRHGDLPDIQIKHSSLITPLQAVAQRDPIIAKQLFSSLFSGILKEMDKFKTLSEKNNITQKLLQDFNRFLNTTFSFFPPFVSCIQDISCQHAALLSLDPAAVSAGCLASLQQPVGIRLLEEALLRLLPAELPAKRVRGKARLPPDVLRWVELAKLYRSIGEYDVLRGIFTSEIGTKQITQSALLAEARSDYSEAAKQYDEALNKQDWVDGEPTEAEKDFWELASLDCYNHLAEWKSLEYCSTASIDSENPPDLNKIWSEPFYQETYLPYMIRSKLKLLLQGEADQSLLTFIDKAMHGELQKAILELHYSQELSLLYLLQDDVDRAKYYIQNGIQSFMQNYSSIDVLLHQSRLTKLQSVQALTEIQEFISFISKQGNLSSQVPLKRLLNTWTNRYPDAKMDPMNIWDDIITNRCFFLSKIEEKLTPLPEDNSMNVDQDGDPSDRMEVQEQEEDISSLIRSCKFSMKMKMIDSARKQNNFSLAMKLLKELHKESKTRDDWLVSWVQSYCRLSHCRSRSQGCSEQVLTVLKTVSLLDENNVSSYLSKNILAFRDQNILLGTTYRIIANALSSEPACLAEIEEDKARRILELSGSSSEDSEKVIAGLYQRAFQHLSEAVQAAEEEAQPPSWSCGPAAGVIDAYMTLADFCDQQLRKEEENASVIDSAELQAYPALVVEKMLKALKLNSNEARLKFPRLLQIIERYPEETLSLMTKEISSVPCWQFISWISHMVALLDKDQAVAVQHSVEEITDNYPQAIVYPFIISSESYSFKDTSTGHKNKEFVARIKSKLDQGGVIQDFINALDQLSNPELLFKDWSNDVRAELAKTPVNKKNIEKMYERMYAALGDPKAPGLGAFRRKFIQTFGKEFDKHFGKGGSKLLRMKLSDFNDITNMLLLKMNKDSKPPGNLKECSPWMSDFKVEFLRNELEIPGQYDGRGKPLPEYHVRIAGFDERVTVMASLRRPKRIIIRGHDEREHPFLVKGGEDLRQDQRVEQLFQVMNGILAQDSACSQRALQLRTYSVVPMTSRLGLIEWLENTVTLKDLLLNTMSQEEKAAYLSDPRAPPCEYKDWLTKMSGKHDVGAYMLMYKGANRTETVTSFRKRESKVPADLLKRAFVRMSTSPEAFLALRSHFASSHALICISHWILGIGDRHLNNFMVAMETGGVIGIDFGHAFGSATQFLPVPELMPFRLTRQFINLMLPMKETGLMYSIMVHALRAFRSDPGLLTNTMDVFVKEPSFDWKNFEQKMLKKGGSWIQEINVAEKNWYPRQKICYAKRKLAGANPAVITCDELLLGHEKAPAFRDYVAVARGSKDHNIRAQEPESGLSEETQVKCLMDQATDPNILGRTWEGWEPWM

Regarding `CCOC(=O)N1Cc2nc(-c3ccc(NC(=O)NC4CC4)cc3F)nc(N3CCOCC3)c2C1` [Example 156, Ethyl 2-(4-(3-cyclopropylureido)-2-fluorophenyl)-4-morpholino-5H-pyrrolo[3,4-d]pyrimidine-6(7H)-carboxylate], the IC50 (in test [1] (setting [2]); on PI3K delta (PI3 Kd) (setting [3])) was > 10 µM in each case.
Regarding `CCNC(=O)Nc1ccc(-c2nc3c(c(N4CCOCC4)n2)CN(C)C3)c(F)c1` [Example 154, 1-ethyl-3-(3-fluoro-4-(6-methyl-4-morpholino-6,7-dihydro-5H-pyrrolo[3,4-d]pyrimidin-2-yl)phenyl)urea], the IC50 (in test [1] (setting [2]); at PI3K delta (PI3 Kd) (setting [3])) was > 10 µM throughout.
For `CC(=O)N1Cc2nc(-c3ccc(NC(=O)NC4CC4)cc3F)nc(N3CCOC[C@@H]3C)c2C1` [Example 155, (S)-1-(4-(6-acetyl-4-(3-methylmorpholino)-6,7-dihydro-5H-pyrrolo[3,4-d]pyrimidin-2-yl)-3-fluorophenyl)-3-cyclopropylurea], the IC50 (in test [1] (setting [2]); on PI3K delta (PI3 Kd) (setting [3])) was > 10 µM each time.
As to `CC(C)N1CCc2c(nc(-c3ccc(NC(=O)NC4CC4)cc3)nc2N2CCOC[C@@H]2C)C1` [Example 43, (S)-1-cyclopropyl-3-(4-(7-isopropyl-4-(3-methylmorpholino)-5,6,7,8-tetrahydropyrido[3,4-d]pyrimidin-2-yl)phenyl)urea], the IC50 (in test [1] (setting [4]); in test [1] (setting [5]); at PI3K delta (PI3 Kd) (setting [6]); at PI3K delta (PI3 Kd) (setting [7])) was > 10 µM each time.
As to `CC(C)N1Cc2nc(-c3ccc(NC(=O)NC4CC4)cc3)nc(N3CCOC[C@@H]3C)c2C1` [Example 46, (S)-1-cyclopropyl-3-(4-(6-isopropyl-4-(3-methylmorpholino)-6,7-dihydro-5H-pyrrolo[3,4-d]pyrimidin-2-yl)phenyl)urea], the IC50 (in test [1] (setting [4]); in test [1] (setting [5]); at PI3K delta (PI3 Kd) (setting [6]); at PI3K delta (PI3 Kd) (setting [7])) was > 10 µM in each case.
`CCOC(=O)N1Cc2nc(-c3ccc(NC(=O)NCCO)cc3F)nc(N3CCOCC3)c2C1` [Example 171, ethyl 2-(2-fluoro-4-(3-(2-hydroxyethyl)ureido)phenyl)-4-morpholino-5H-pyrrolo[3,4-d]pyrimidine-6(7H)-carboxylate]: the IC50 in test [1] (setting [2]) is 1 to 10 µM; at PI3K delta (PI3 Kd) (setting [3]), > 10 µM.
Turning to `CCNC(=O)Nc1ccc(-c2nc3c(c(N4CCOC[C@@H]4C)n2)CCN(C(=O)C(C)C)C3)cc1` [Example 57, (S)-1-ethyl-3-(4-(7-isobutyryl-4-(3-methylmorpholino)-5,6,7,8-tetrahydropyrido[3,4-d]pyrimidin-2-yl)phenyl)urea], the IC50 (in test [1] (setting [4]); in test [1] (setting [5]); at PI3K delta (PI3 Kd) (setting [6]); at PI3K delta (PI3 Kd) (setting [7])) was > 10 µM each time.
Turning to `CC(=O)N1Cc2nc(-c3ccc(NC(=O)NC4CC4)cc3)nc(N3CCOC[C@@H]3C)c2C1` [Example 20, (S)-1-(4-(6-acetyl-4-(3-methylmorpholino)-6,7-dihydro-5H-pyrrolo[3,4-d]pyrimidin-2-yl)phenyl)-3-cyclopropylurea], the IC50 (in test [1] (setting [4]); in test [1] (setting [5]); at PI3K delta (PI3 Kd) (setting [6]); on PI3K delta (PI3 Kd) (setting [7])) was > 10 µM in each case.
Turning to `CCNC(=O)Nc1ccc(-c2nc3c(c(N4CCOCC4)n2)CN(C(=O)OCC)C3)c(F)c1` [Example 151, Ethyl 2-(4-(3-ethylureido)-2-fluorophenyl)-4-morpholino-5H-pyrrolo[3,4-d]pyrimidine-6(7H)-carboxylate], the IC50 (in test [1] (setting [2]); on PI3K delta (PI3 Kd) (setting [3])) was > 10 µM in each case.
On to `CCNC(=O)Nc1ccc(-c2nc3c(c(N4CCOC[C@@H]4C)n2)CCN(CC)C3)cc1` [Example 27, (S)-1-ethyl-3-(4-(7-ethyl-4-(3-methylmorpholino)-5,6,7,8-tetrahydropyrido[3,4-d]pyrimidin-2-yl)phenyl)urea], for which the IC50 (in test [1] (setting [4]); in test [1] (setting [5]); at PI3K delta (PI3 Kd) (setting [6]); at PI3K delta (PI3 Kd) (setting [7])) was > 10 µM each time.
In the case of `CCNC(=O)Nc1ccc(-c2nc3c(c(N4CCOC[C@@H]4C)n2)CN(Cc2ccc(F)cc2)C3)cc1` [Example 29, (S)-1-ethyl-3-(4-(6-(4-fluorobenzyl)-4-(3-methylmorpholino)-6,7-dihydro-5H-pyrrolo[3,4-d]pyrimidin-2-yl)phenyl)urea], the IC50 (in test [1] (setting [4]); in test [1] (setting [5]); on PI3K delta (PI3 Kd) (setting [6]); on PI3K delta (PI3 Kd) (setting [7])) was > 10 µM in each case.
As for `CCNC(=O)Nc1ccc(-c2nc3c(c(N4CCOC[C@@H]4C)n2)CN(C(=O)c2ccc(F)cc2)C3)cc1` [Example 19, (S)-1-ethyl-3-(4-(6-(4-fluorobenzoyl)-4-(3-methylmorpholino)-6,7-dihydro-5H-pyrrolo[3,4-d]pyrimidin-2-yl)phenyl)urea], the IC50 (in test [1] (setting [4]); in test [1] (setting [5]); on PI3K delta (PI3 Kd) (setting [6]); on PI3K delta (PI3 Kd) (setting [7])) was > 10 µM each time.
As to `C[C@H]1COCCN1c1nc(-c2ccc(NC(=O)NC3CC3)cc2)nc2c1CCNC2` [Example 15, (S)-1-cyclopropyl-3-(4-(4-(3-methylmorpholino)-5,6,7,8-tetrahydropyrido[3,4-d]pyrimidin-2-yl)phenyl)urea], the IC50 (in test [1] (setting [4]); in test [1] (setting [5]); at PI3K delta (PI3 Kd) (setting [6]); on PI3K delta (PI3 Kd) (setting [7])) was > 10 µM in each case.
Turning to `C[C@H]1COCCN1c1nc(-c2ccc(NC(=O)NC3CC3)cc2F)nc2c1CCN(C(=O)N(C)C)C2` [Example 165, (S)-2-(4-(3-cyclopropylureido)-2-fluorophenyl)-N,N-dimethyl-4-(3-methylmorpholino)-5,6-dihydropyrido[3,4-d]pyrimidine-7(8H)-carboxamide], the IC50 (in test [1] (setting [2]); on PI3K delta (PI3 Kd) (setting [3])) was > 10 µM in each case.
As to `CCNC(=O)N1Cc2nc(-c3ccc(NC(=O)NC4CC4)cc3)nc(N3CCOC[C@@H]3C)c2C1` [Example 33, (S)-2-(4-(3-cyclopropylureido)phenyl)-N-ethyl-4-(3-methylmorpholino)-5H-pyrrolo[3,4-d]pyrimidine-6(7H)-carboxamide], the IC50 (in test [1] (setting [4]); in test [1] (setting [5]); on PI3K delta (PI3 Kd) (setting [6]); on PI3K delta (PI3 Kd) (setting [7])) was > 10 µM throughout.
Consider `CCN1Cc2nc(-c3ccc(NC(=O)NC4CC4)cc3)nc(N3CCOC[C@@H]3C)c2C1` [Example 36, (S)-1-cyclopropyl-3-(4-(6-ethyl-4-(3-methylmorpholino)-6,7-dihydro-5H-pyrrolo[3,4-d]pyrimidin-2-yl)phenyl)urea], for which the IC50 (in test [1] (setting [4]); in test [1] (setting [5]); on PI3K delta (PI3 Kd) (setting [6]); on PI3K delta (PI3 Kd) (setting [7])) was > 10 µM each time.
Regarding `CCNC(=O)Nc1ccc(-c2nc3c(c(N4CCOC[C@@H]4C)n2)CNCC3)cc1` [Example 12, (S)-1-ethyl-3-(4-(4-(3-methylmorpholino)-5,6,7,8-tetrahydropyrido[4,3-d]pyrimidin-2-yl)phenyl)urea], the IC50 (in test [1] (setting [4]); in test [1] (setting [5]); on PI3K delta (PI3 Kd) (setting [6]); on PI3K delta (PI3 Kd) (setting [7])) was > 10 µM each time.
With `CCNC(=O)Nc1ccc(-c2nc3c(c(N4CCOC[C@@H]4C)n2)CCNC3)c(F)c1` [Example 164, (S)-1-ethyl-3-(3-fluoro-4-(4-(3-methylmorpholino)-5,6,7,8-tetrahydropyrido[3,4-d]pyrimidin-2-yl)phenyl)urea], the IC50 (in test [1] (setting [2]); at PI3K delta (PI3 Kd) (setting [3])) was > 10 µM throughout.
